Data published in patent US20230286923A1 (INIPHARM, INC., priority 2020, published 2023).

Tests used:
HSD17B13 enzyme [1] = target: T1, HSD17B13 enzyme (Homo sapiens (Human), UniProt Q7Z5P4); test: NADH detection assay (fluorescence based LTB3 assay) for HSD17B13 activity; assay type: biochemical; conditions: substrate 25 µM LTB3, 3 mM NAD+, 125 nM enzyme
Procedure: The fluorescence based Leukotriene B3 (LTB3) assay monitors the fluorescence of NADH, which is generated from NAD+ during the dehydrogenation of the substrate LTB3. The reactions were performed in a 384-well plates (Greiner; #655076) in a 20 µl reaction volume containing the following reagents (final concentrations): 25 µM LTB3 (Cayman; #20109); 3 mM NAD^+ (Sigma; #N0623); 125 nM HSD17B13 enzyme (in-house; E. coli expressed His-tagged, purified, soluble protein); 1 M potassium phosphate buffer, pH 7.4; and 1% DMSO. Reactions were initiated by co-addition of NAD+ and enzyme, and monitored for 1 hour at 26.5° C. Generation of NADH was measured as the fluorescence signal (Excitation at 340 nm and Emission at 445 nm) at 1 hour minus the baseline fluorescence at t=0. Fluorescence signals in the absence of LTB3 (negative control values), were subtracted from all values so that the results reflected substrate-dependent production of NADH. NADH standards were included to allow the conversion of relative fluorescence units into rates of enzyme activity. Enzyme activity in the presence of test compounds was expressed as a percentage of the uninhibited enzyme activity, and plotted versus inhibitor concentration. Non-linear regression was performed using a four-parameter logistic model and Microsoft Excel Solver software Ten concentrations of inhibitor were tested in duplicate (in the range of 30 µM - 2.5 nM), and two independent concentration response assays were performed.

HSD17B13 enzyme [2] = target: T1, HSD17B13 enzyme; test: Estrone detection assay (LC/MS, conversion of estradiol to estrone) for HSD17B13 activity; assay type: biochemical; conditions: substrate 4 µM estradiol, 6 mM NAD+, 30 nM enzyme
Procedure: The liquid chromatography/mass spectrometry (LC/MS) estrone detection assay monitors the conversion of estradiol to estrone by HSD17B13. This assay was undertaken in a 96wp format (Eppendorf deep well Plate 96/500) in an 80 µl reaction volume containing: 4 µM of Estradiol (E2; Cayman; #10006315), 6 mM NAD^+ (Sigma; #N0623) and 30 nM HSD17B13 enzyme (in-house; E. coli expressed His-tagged, purified, soluble protein) in a reaction containing 1 M potassium phosphate buffer pH 7.4, with 0.5% vehicle (DMSO). Reactions were incubated for 2 hours at 26.5° C., and estradiol (E2) conversion to estrone (E1) was quantitated by LC-MS/MS based analyte detection for both E2 and E1 using LCMS grade reagents.
Reactions were terminated by the addition of two volumes of acetonitrile (MeCN; LCMS grade; CAS# 75/05/8) containing deuterated (D4)-E1 used as internal standard (Clear Synth; #CS-T-54273; 500 ng/mL final concentration). Samples were applied to pre-prepared Bond Elut-C18 extraction cartridges (3 mL; Agilent; #12102028), washed and eluted in MeCN. Eluates were dried under nitrogen and re-suspended in 60% methanol (LCMS grade methanol; CAS# 67/56/1) before submission for analysis. Aqueous linearity for E2 and E1 were included for quantification.
Analysis of samples was undertaken on a XBridge BEH C18 column (Waters; #186003033) using 0.1% Diethyl Amine in MeCN (mobile phase A; DEA CAS# 109-89-7) and 0.1% Diethyl Amine in milli-Q water (mobile phase B) in a 3 min gradient allowing 25%B. Analytes were detected in negative mode using MRM analysis, with E2 having a RT of 1.85 min and E1 having a RT of 2 min. Activity of the enzyme, in the absence of NAD^+, was used to evaluate specificity of conversion. Enzyme activity in the presence of test samples was expressed as a percentage of the uninhibited enzyme activity, and plotted versus inhibitor concentration. Non-linear regression was performed using a four-parameter logistic model and GraphPad Prism software (GraphPad Software, La Jolla, CA). All assessments were undertaken in duplicate evaluations and pooled during extraction process and subsequently injected as duplicates for LC-MS/MS analysis.

T1 sequence (Q7Z5P4 20-300): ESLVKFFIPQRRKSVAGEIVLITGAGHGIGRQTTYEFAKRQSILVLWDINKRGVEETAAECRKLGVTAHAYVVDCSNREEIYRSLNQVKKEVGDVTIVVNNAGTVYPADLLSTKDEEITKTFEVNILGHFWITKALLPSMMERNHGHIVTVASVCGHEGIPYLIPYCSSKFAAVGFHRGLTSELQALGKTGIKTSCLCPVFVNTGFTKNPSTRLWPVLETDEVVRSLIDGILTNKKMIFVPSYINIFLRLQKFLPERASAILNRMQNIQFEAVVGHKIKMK

Row | IC50 (HSD17B13 enzyme [1]) [nM] | IC50 (HSD17B13 enzyme [2]) [nM] | Compound
1 | > 10000 | > 10000 | COc1ccccc1CCn1cnc2cccc(NC(=O)c3cc(Cl)c(O)c(C(C)C)c3)c2c1=O [Example 24, 3-chloro-4-hydroxy-5-isopropyl-N-(3-(2-methoxyphenethyl)-4-oxo-3,4-dihydroquinazolin-5-yl)benzamide]
2 | 1000 to 5000 | 1000 to 10000 | COc1ccccc1CCn1cnc2cccc(NC(=O)c3ccc(-c4nnn[nH]4)c(Cl)c3)c2c1=O [Example 27, 3-chloro-N-(3-(2-methoxyphenethyl)-4-oxo-3,4-dihydroquinazolin-5-yl)-4-(1H-tetrazol-5-yl)benzamide]
3 | > 10000 | > 10000 | COc1ccccc1CCn1cnc2cccc(NC(=O)c3ccc(S(N)(=O)=O)c(Cl)c3)c2c1=O [Example 29, 3-chloro-N-(3-(2-methoxyphenethyl)-4-oxo-3,4-dihydroquinazolin-5-yl)-4-sulfamoylbenzamide]
4 | ≤ 1000 | ≤ 100 | COc1ccccc1CCn1cnc2cccc(NC(=O)c3ccc(O)c(C(F)(F)F)c3)c2c1=O [Example 32, 4-hydroxy-N-(3-(2-methoxyphenethyl)-4-oxo-3,4-dihydroquinazolin-5-yl)-3-(trifluoromethyl)benzamide]
5 | 1000 to 5000 | 100 to 1000 | COc1ccccc1CCn1cnc2cccc(NC(=O)c3cc(Cl)c(O)c(Cl)c3)c2c1=O [Example 33, 3,5-dichloro-4-hydroxy-N-(3-(2-methoxyphenethyl)-4-oxo-3,4-dihydroquinazolin-5-yl)benzamide]

Continued, compound first:

Row | Compound | IC50 (HSD17B13 enzyme [1]) [nM] | IC50 (HSD17B13 enzyme [2]) [nM]
6 | COc1ccccc1CCn1cnc2cccc(NC(=O)c3ccc(CC(=O)O)c(F)c3)c2c1=O [Example 25, 2-(2-fluoro-4-((3-(2-methoxyphenethyl)-4-oxo-3,4-dihydroquinazolin-5-yl)carbamoyl)phenyl)acetic acid] | > 10000 | 1000 to 10000
7 | COc1ccccc1CCn1cnc2cccc(NC(=O)c3ccc(-c4cnn[nH]4)c(F)c3)c2c1=O [Example 26, 3-fluoro-N-(3-(2-methoxyphenethyl)-4-oxo-3,4-dihydroquinazolin-5-yl)-4-(1H-1,2,3-triazol-5-yl)benzamide] | > 10000 | 1000 to 10000
8 | COc1ccccc1CCn1cnc2c(c(NC(=O)c3ccc(O)c(F)c3)nn2C)c1=O [Example 28, 3-fluoro-4-hydroxy-N-(5-(2-methoxyphenethyl)-1-methyl-4-oxo-4,5-dihydro-1H-pyrazolo[3,4-d]pyrimidin-3-yl)benzamide] | 5000 to 10000 | 100 to 1000
9 | O=C(Nc1cccc2ncn(Cc3cccnc3)c(=O)c12)c1ccc(O)c(Cl)c1 [Example 30, 3-chloro-4-hydroxy-N-(4-oxo-3-(pyridin-3-ylmethyl)-3,4-dihydroquinazolin-5-yl)benzamide] | ≤ 1000 | ≤ 100
10 | COc1ccccc1CCn1cnc2cccc(NC(=O)c3ccc(O)c(C(C)(C)C)c3)c2c1=O [Example 31, 3-(tert-butyl)-4-hydroxy-N-(3-(2-methoxyphenethyl)-4-oxo-3,4-dihydroquinazolin-5-yl)benzamide] | > 10000 | > 10000
11 | COc1ccccc1CCn1cnc2sc(C)c(NC(=O)c3ccc(O)c(Cl)c3)c2c1=O [Example 34, 3-chloro-4-hydroxy-N-(3-(2-methoxyphenethyl)-6-methyl-4-oxo-3,4-dihydrothieno[2,3-d]pyrimidin-5-yl)benzamide] | ≤ 1000 | ≤ 100
